Reference: patent US12653832B2, “Methods for treating lung infections and inflammation” (BRIGHAM YOUNG UNIVERSITY, priority 2013, dated 2026)
Values after ≈ are worked out from the molar mass of the structure shown.

How the values were obtained:
[1] = tested on: Pseudomonas aeruginosa; experiment: Assessment of bacterial resistance by serial exposure, MIC; type: cell-based; conditions: serial passages (FIG. 2)
Description: (§1) A central consideration in the development of novel antimicrobials is potential generation of bacterial resistance. […] See Pollard J E, et al. J. Antimicrob. Chemother. 2012, 67, 2665-2672 (describing experimental protocol).

[2] = tested on: Staphylococcus aureus; experiment: as above; type: cell-based; conditions: after 30 serial passages
Description: as §1

[3] = tested on: tobramycin-resistant P. aeruginosa strains; experiment: MIC against tobramycin resistant strains (cross-resistance); type: cell-based; conditions: seven tobramycin resistant P. aeruginosa strains (FIG. 3)
Description: Tobramycin is commonly used in reducing the bacterial burden in the lungs of cystic fibrosis patients. However, resistance to tobramycin is often observed among P. aeruginosa isolates. Tobramycin resistance is typically achieved by acylation or phosphorylation of the primary amine groups in the antibiotic.
Similar studies can be conducted for other drug-resistant pathogenic strains following this standard experimental protocol.

[4] = tested on: P. aeruginosa; experiment: Drug combinations of CSAs and anti-pathogenic substances (synergy); type: cell-based
Method: Following the protocols outlined in Appl. Microbiol. Biotechnol., 2010 (September) pp. 251-63 and Chemotherapy, 2011 (November), Vol. 57, pp. 505-10, drug combinations involving CSAs and anti-pathogenic substances are performed.

[5] = tested on: P. aeruginosa (PAO1); experiment: MIC against infection-model strain; type: cell-based
[6] = tested on: P. aeruginosa (PAO1); experiment: Animal model of lung infection, bacterial counts in lung tissue; type: in vivo, mice; conditions: for elimination of the bacterial burden: 80 mg/kg via nebulization; for reduction in bacterial burden: 80 mg/kg via nebulization four hours after infection
Method: In vivo studies were designed to allow observation of both tolerance for CSAs and effectiveness of the antimicrobial in reducing bacterial burden. An infection model was used in which mice were inoculated with P. aeruginosa (PAO1) intra-nasally (10^5 CFU) to establish an infection. […] Two doses were used: 40 and 80 mg/kg. […] After 24 h, the mice were euthanized, and lung tissues were homogenized. Bacterial counts were determined by serial dilution, plating on nutrient agar, incubation, and colony counting. As a comparator, tobramycin was administered via the same route, and P. aeruginosa counts were determined.
(§2) IL-6 was measured from kidney tissue specimens.

[7] = tested on: IL-6; experiment: IL-6 levels in murine pneumonia model; type: in vivo, mice; conditions: inhaled, 40 and 80 mg/kg; IL-6 measured from kidney tissue specimens (FIG. 5)
Method: as §2

[8] = tested on: inflammatory cells around bronchioles in lungs; experiment: Murine lung histology in pneumonia model; type: in vivo, mice; conditions: 4 hours post challenge with Pseudomonas PA01
Method: In this experiment, mice were infected with 10^8 PA01 strain of Pseudomonas, representing a murine pneumonia model. […] The CSA treatment was administered 4 hours post challenge with Pseudomonas.

Row | SMILES | MIC at which the rise appeared to level off [1] | change in Minimum Inhibitory Concentration (MIC) [2] | susceptibility of tobramycin resistant strains [3] | synergy ([4]; combined with ciprofloxaxin) | synergy ([4]; combined with tobramycin) | synergistic result ([4]; in combination with colistin, against P. aeruginosa) | MIC [5] | drop in bacterial counts ([6]; 40 mg/kg via nebulization four hours after infection, lung counts after 24 h) | elimination of the bacterial burden [6] | reduction in bacterial burden ([6]; lung counts after 24 h) | Pseudomonas load ([6]; inhaled, 40 and 80 mg/kg, murine pneumonia model (FIG. 5)) | IL-6 levels [7] | inflammatory cells in lung histology ([8]; 40 mg/kg dose) | inflammatory cells in lung histology ([8]; 80 mg/kg dose) | reduction of the MIC of erythromycin ([4]; CSA-13 administered with erythromycin)
1 | CCCCCCCCNCCC[C@@H](C)[C@H]1CC[C@H]2[C@@H]3[C@H](OCCCN)C[C@@H]4C[C@H](OCCCN)CC[C@]4(C)[C@H]3C[C@H](OCCCN)[C@]12C [CSA-13] | ~20 µg/mL (≈ 29.5 µM) | no significant change | all strains were comparably susceptible | Additional synergies were observed | Additional synergies were observed | 54% | 2.5 µg/mL (≈ 3.69 µM) | two | 99.99% | greater than four | reduced | reduced | substantial reduction of inflammatory cells | even greater reduction in inflammatory cells | –
2 | CC[C@H]1OC(=O)[C@H](C)[C@@H](O[C@H]2C[C@@](C)(OC)[C@@H](O)[C@H](C)O2)[C@H](C)[C@@H](O[C@@H]2O[C@H](C)C[C@H](N(C)C)[C@H]2O)[C@](C)(O)C[C@@H](C)C(=O)[C@H](C)[C@@H](O)[C@]1(C)O [erythromycin, reference compound] | – | – | – | – | – | – | – | – | – | – | – | – | – | – | 92%
3 | NC[C@H]1O[C@H](O[C@H]2[C@H](O)[C@@H](O[C@H]3O[C@H](CO)[C@@H](O)[C@H](N)[C@H]3O)[C@H](N)C[C@@H]2N)[C@H](N)C[C@@H]1O [tobramycin, reference compound] | – | – | varied significantly | – | – | – | – | – | 99.99% | greater than four | – | – | – | – | –
